# Measured values published in the supplement of paper PMC10733146.
# Tests used:
# Experiment in all cases: viability relative to DMSO control (fraction); higher = less drug effect (more viable cells)
# Settings in all cases: 48 h
# [1] = compound: CC[C@@H]1C(=O)N(C)c2cnc(Nc3ccc(C(=O)N[C@H]4CC[C@H](N5CCN(CC6CC6)CC5)CC4)cc3OC)nc2N1C(C)C [BI6727]
# Summary of the method: (§1)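 In 384-well plates with compounds pre-plated at five concentrations (one well per concentration), primary mononuclear tumour cells were plated at 4 × 10^4 cells per well. The cells came from blood or bone marrow by Ficoll isolation or from processed lymph node, and were used fresh or cryopreserved. Culture ran for 48 h at 37 °C and 5% CO2 in RPMI-1640 containing penicillin/streptomycin, L-glutamine and human serum. Viability was read as CellTiter-Glo luminescence, normalised to the median of 16 inner DMSO wells.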
# [2] = compound: CCCS(=O)(=O)Nc1ccc(F)c(C(=O)c2c[nH]c3ncc(-c4ccc(Cl)cc4)cc23)c1F [Vemurafenib]
# Summary of the method: as §1
# [3] = compound: COc1c(Cl)cc2c([nH]c3cnccc32)c1NC(=O)c1cccnc1C [MLN-120B]
# Summary of the method: as §1
# [4] = compound: CC(C)C[C@H](NC(=O)[C@H](CCc1ccccc1)NC(=O)CN1CCOCC1)C(=O)N[C@@H](Cc1ccccc1)C(=O)N[C@@H](CC(C)C)C(=O)[C@@]1(C)CO1 [Carfilzomib]
# Summary of the method: as §1
# [5] = compound: CC(C)(C)c1cc(NC(=O)Nc2ccc(-c3cn4c(n3)sc3cc(OCCN5CCOCC5)ccc34)cc2)no1 [Quizartinib]
# Summary of the method: as §1
# [6] = compound: Nc1nc(Cl)nc2c1ncn2[C@H]1C[C@H](O)[C@@H](CO)O1 [Cladribine]
# Summary of the method: as §1
# [7] = compound: CC(C)N(C[C@H]1O[C@@H](n2cnc3c(N)ncnc32)[C@H](O)[C@@H]1O)[C@H]1C[C@@H](CCc2nc3cc(C(C)(C)C)ccc3[nH]2)C1 [EPZ-5676]
# Summary of the method: as §1
# [8] = compound: OCc1ccc(-c2ccc(-c3ccc(CO)s3)o2)s1
# Summary of the method: as §1
# [9] = compound: Cc1[nH]c2ccccc2c1CCNCc1ccc(/C=C/C(=O)NO)cc1 [Panobinostat]
# Summary of the method: as §1
# [10] = compound: CC#CC(=O)N1CC[C@@H](n2c(=O)n(-c3ccc(Oc4ccccc4)cc3)c3c(N)ncnc32)C1 [ONO-4059]
# Summary of the method: as §1
# [11] = compound: Cc1cc(Nc2cc(N3CCN(C)CC3)nc(Sc3ccc(NC(=O)C4CC4)cc3)n2)n[nH]1 [Tozasertib]
# Summary of the method: as §1
# [12] = compound: NC(=O)Nc1cc(-c2cccc(F)c2)sc1C(=O)N[C@H]1CCCNC1 [AZD7762]
# Summary of the method: as §1
# [13] = compound: CC(C)(C)OC(=O)Nc1ccc(-c2cc(C(=O)NCCCCCCC(=O)NO)no2)cc1
# Summary of the method: as §1
# [14] = compound: CC(=O)[C@]1(O)Cc2c(O)c3c(c(O)c2[C@@H](O[C@H]2C[C@H](N)[C@H](O)[C@H](C)O2)C1)C(=O)c1ccccc1C3=O [Idarubicin]
# Summary of the method: as §1
# [15] = compound: CCOc1cc(C(=O)N2CCC(N3CCN(C)CC3)CC2)ccc1Nc1ncc2c(n1)N(C1CCCC1)c1ccccc1C(=O)N2C [ERK5-IN-1]
# Summary of the method: as §1
test system,measurement,setting,value
primary MCL patient cells (S063),viability,[1]; 0.024 µM,0.918
same,viability,[1]; 0.12 µM,1.03
same,viability,[1]; 0.6 µM,0.951
same,viability,[1]; 3 µM,0.763
same,viability,[1]; 15 µM,0.308
same,viability,[2]; 0.024 µM,1.02
same,viability,[2]; 0.12 µM,1.01
same,viability,[2]; 0.6 µM,1.04
same,viability,[2]; 3 µM,1.04
same,viability,[2]; 15 µM,1.04
same,viability,[3]; 0.024 µM,0.959
same,viability,[3]; 0.12 µM,0.924
same,viability,[3]; 0.6 µM,0.936
same,viability,[3]; 3 µM,0.814
same,viability,[3]; 15 µM,0.66
same,viability,[4]; 0.00016 µM,0.87
same,viability,[4]; 0.0008 µM,0.212
same,viability,[4]; 0.004 µM,0.0158
same,viability,[4]; 0.02 µM,0.0147
same,viability,[4]; 0.1 µM,0.0203
same,viability,[5]; 0.016 µM,1.12
same,viability,[5]; 0.08 µM,1.17
same,viability,[5]; 0.4 µM,1.07
same,viability,[5]; 2 µM,1.17
same,viability,[5]; 10 µM,1.13
same,viability,[6]; 0.024 µM,0.931
same,viability,[6]; 0.12 µM,0.645
same,viability,[6]; 0.6 µM,0.272
same,viability,[6]; 3 µM,0.129
same,viability,[6]; 15 µM,0.0794
same,viability,[7]; 0.0032 µM,0.944
same,viability,[7]; 0.016 µM,1.12
same,viability,[7]; 0.08 µM,0.956
same,viability,[7]; 0.4 µM,1.03
same,viability,[7]; 2 µM,1.11
same,viability,[8]; 0.024 µM,1.04
same,viability,[8]; 0.12 µM,1.04
same,viability,[8]; 0.6 µM,1
same,viability,[8]; 3 µM,0.933
same,viability,[8]; 15 µM,0.51
same,viability,[9]; 0.00064 µM,1.03
same,viability,[9]; 0.0032 µM,0.93
same,viability,[9]; 0.016 µM,0.182
same,viability,[9]; 0.08 µM,0.0167
same,viability,[9]; 0.4 µM,0.0196
same,viability,[10]; 0.0016 µM,0.777
same,viability,[10]; 0.008 µM,0.321
same,viability,[10]; 0.04 µM,0.254
same,viability,[10]; 0.2 µM,0.237
same,viability,[10]; 1 µM,0.267
same,viability,[11]; 0.024 µM,0.965
same,viability,[11]; 0.12 µM,0.896
same,viability,[11]; 0.6 µM,0.914
same,viability,[11]; 3 µM,0.753
same,viability,[11]; 15 µM,0.371
same,viability,[12]; 0.024 µM,0.635
same,viability,[12]; 0.12 µM,0.249
same,viability,[12]; 0.6 µM,0.16
same,viability,[12]; 3 µM,0.0982
same,viability,[12]; 15 µM,0.123
same,viability,[13]; 0.024 µM,1.05
same,viability,[13]; 0.12 µM,1
same,viability,[13]; 0.6 µM,0.859
same,viability,[13]; 3 µM,0.24
same,viability,[13]; 15 µM,0.0207
same,viability,[14]; 0.024 µM,1.11
same,viability,[14]; 0.12 µM,0.475
same,viability,[14]; 0.6 µM,0.0231
same,viability,[14]; 3 µM,0.0118
same,viability,[14]; 15 µM,0.0146
same,viability,[15]; 0.024 µM,1.04
same,viability,[15]; 0.12 µM,0.967
same,viability,[15]; 0.6 µM,1
same,viability,[15]; 3 µM,0.702
same,viability,[15]; 15 µM,0.279
primary AML patient cells (S071),viability,[1]; 0.024 µM,0.699
same,viability,[1]; 0.12 µM,0.706
same,viability,[1]; 0.6 µM,0.669
same,viability,[1]; 3 µM,0.532
same,viability,[1]; 15 µM,0.167
same,viability,[2]; 0.024 µM,0.975
same,viability,[2]; 0.12 µM,0.999
same,viability,[2]; 0.6 µM,0.963
same,viability,[2]; 3 µM,1.05
same,viability,[2]; 15 µM,1.06
same,viability,[3]; 0.024 µM,0.867
same,viability,[3]; 0.12 µM,0.847
same,viability,[3]; 0.6 µM,0.876
same,viability,[3]; 3 µM,0.812
same,viability,[3]; 15 µM,0.652
same,viability,[4]; 0.00016 µM,0.973
same,viability,[4]; 0.0008 µM,0.949
same,viability,[4]; 0.004 µM,0.137
same,viability,[4]; 0.02 µM,0.0803
same,viability,[4]; 0.1 µM,0.11
same,viability,[5]; 0.016 µM,0.969
same,viability,[5]; 0.08 µM,0.895
same,viability,[5]; 0.4 µM,0.672
same,viability,[5]; 2 µM,0.415
same,viability,[5]; 10 µM,0.272
same,viability,[6]; 0.024 µM,0.446
same,viability,[6]; 0.12 µM,0.23
same,viability,[6]; 0.6 µM,0.201
same,viability,[6]; 3 µM,0.195
same,viability,[6]; 15 µM,0.194
same,viability,[7]; 0.0032 µM,0.836
same,viability,[7]; 0.016 µM,1.03
same,viability,[7]; 0.08 µM,0.883
same,viability,[7]; 0.4 µM,0.896
same,viability,[7]; 2 µM,0.938
same,viability,[8]; 0.024 µM,0.821
same,viability,[8]; 0.12 µM,0.744
same,viability,[8]; 0.6 µM,0.454
same,viability,[8]; 3 µM,0.255
same,viability,[8]; 15 µM,0.151
same,viability,[9]; 0.00064 µM,0.636
same,viability,[9]; 0.0032 µM,0.554
same,viability,[9]; 0.016 µM,0.223
same,viability,[9]; 0.08 µM,0.184
same,viability,[9]; 0.4 µM,0.185
same,viability,[10]; 0.0016 µM,1.03
same,viability,[10]; 0.008 µM,0.991
same,viability,[10]; 0.04 µM,1.02
same,viability,[10]; 0.2 µM,1.01
same,viability,[10]; 1 µM,0.987
same,viability,[11]; 0.024 µM,0.64
same,viability,[11]; 0.12 µM,0.56
same,viability,[11]; 0.6 µM,0.504
same,viability,[11]; 3 µM,0.534
same,viability,[11]; 15 µM,0.649
same,viability,[12]; 0.024 µM,0.492
same,viability,[12]; 0.12 µM,0.454
same,viability,[12]; 0.6 µM,0.48
same,viability,[12]; 3 µM,0.672
same,viability,[12]; 15 µM,0.927
same,viability,[13]; 0.024 µM,0.832
same,viability,[13]; 0.12 µM,0.739
same,viability,[13]; 0.6 µM,0.75
same,viability,[13]; 3 µM,0.304
same,viability,[13]; 15 µM,0.105
same,viability,[14]; 0.024 µM,0.125
same,viability,[14]; 0.12 µM,0.112
same,viability,[14]; 0.6 µM,0.0685
same,viability,[14]; 3 µM,0.0903
same,viability,[14]; 15 µM,0.0277
same,viability,[15]; 0.024 µM,0.967
same,viability,[15]; 0.12 µM,0.876
same,viability,[15]; 0.6 µM,0.89
same,viability,[15]; 3 µM,0.66
same,viability,[15]; 15 µM,0.238
primary MCL patient cells (S041),viability,[1]; 0.024 µM,0.986
same,viability,[1]; 0.12 µM,0.967
same,viability,[1]; 0.6 µM,0.873
same,viability,[1]; 3 µM,0.76
same,viability,[1]; 15 µM,0.35
same,viability,[2]; 0.024 µM,0.961
same,viability,[2]; 0.12 µM,1
same,viability,[2]; 0.6 µM,0.944
same,viability,[2]; 3 µM,0.979
same,viability,[2]; 15 µM,1.04
same,viability,[3]; 0.024 µM,1.02
same,viability,[3]; 0.12 µM,0.961
same,viability,[3]; 0.6 µM,1.02
same,viability,[3]; 3 µM,0.92
same,viability,[3]; 15 µM,0.924
same,viability,[4]; 0.00016 µM,1.01
same,viability,[4]; 0.0008 µM,0.345
same,viability,[4]; 0.004 µM,0.0174
same,viability,[4]; 0.02 µM,0.0136
same,viability,[4]; 0.1 µM,0.0192
same,viability,[5]; 0.016 µM,1.07
same,viability,[5]; 0.08 µM,1.11
same,viability,[5]; 0.4 µM,1.09
same,viability,[5]; 2 µM,1.06
same,viability,[5]; 10 µM,0.964
same,viability,[6]; 0.024 µM,0.833
same,viability,[6]; 0.12 µM,0.228
same,viability,[6]; 0.6 µM,0.0823
same,viability,[6]; 3 µM,0.0588
same,viability,[6]; 15 µM,0.047
same,viability,[7]; 0.0032 µM,0.925
same,viability,[7]; 0.016 µM,0.99
same,viability,[7]; 0.08 µM,0.925
same,viability,[7]; 0.4 µM,0.928
same,viability,[7]; 2 µM,0.983
same,viability,[8]; 0.024 µM,0.981
same,viability,[8]; 0.12 µM,0.99
same,viability,[8]; 0.6 µM,0.923
same,viability,[8]; 3 µM,0.843
same,viability,[8]; 15 µM,0.581
same,viability,[9]; 0.00064 µM,0.955
same,viability,[9]; 0.0032 µM,0.803
same,viability,[9]; 0.016 µM,0.218
same,viability,[9]; 0.08 µM,0.174
same,viability,[9]; 0.4 µM,0.171
same,viability,[10]; 0.0016 µM,0.927
same,viability,[10]; 0.008 µM,0.877
same,viability,[10]; 0.04 µM,0.819
same,viability,[10]; 0.2 µM,0.92
same,viability,[10]; 1 µM,0.875
same,viability,[11]; 0.024 µM,0.991
same,viability,[11]; 0.12 µM,0.91
same,viability,[11]; 0.6 µM,0.912
same,viability,[11]; 3 µM,0.748
same,viability,[11]; 15 µM,0.652
same,viability,[12]; 0.024 µM,0.732
same,viability,[12]; 0.12 µM,0.648
same,viability,[12]; 0.6 µM,0.586
same,viability,[12]; 3 µM,0.383
same,viability,[12]; 15 µM,0.158
same,viability,[13]; 0.024 µM,1.02
same,viability,[13]; 0.12 µM,0.884
same,viability,[13]; 0.6 µM,0.65
same,viability,[13]; 3 µM,0.221
same,viability,[13]; 15 µM,0.0737
same,viability,[14]; 0.024 µM,0.985
same,viability,[14]; 0.12 µM,0.462
same,viability,[14]; 0.6 µM,0.0191
same,viability,[14]; 3 µM,0.0267
same,viability,[14]; 15 µM,0.0135
same,viability,[15]; 0.024 µM,1.04
same,viability,[15]; 0.12 µM,0.955
same,viability,[15]; 0.6 µM,0.907
same,viability,[15]; 3 µM,0.771
same,viability,[15]; 15 µM,0.564
